Reference: patent US9486506B2 (Novo Nordisk A/S, priority 2011, dated 2016)
Numbered stars: 1 amine (or outer) side, 2 acyl side, 3 side chain; on linkers, the order of the positions; unused ones are H or OH. Side chains are listed from the residue outwards. Peptide text beside a SMILES is read from it. * marks the point of attachment. C18 diacid = O=C(O)CCCCCCCCCCCCCCCCC(=O)*; γGlu = O=C(O)[C@H](CCC(=O)[*:2])N[*:1]; AEEA = NCCOCCOCC(=O)O

Biological target: T1, glucagon receptor (Homo sapiens, UniProt P47871)
T1 construct: expressed in transfected cells
T1 sequence (P47871 26-477): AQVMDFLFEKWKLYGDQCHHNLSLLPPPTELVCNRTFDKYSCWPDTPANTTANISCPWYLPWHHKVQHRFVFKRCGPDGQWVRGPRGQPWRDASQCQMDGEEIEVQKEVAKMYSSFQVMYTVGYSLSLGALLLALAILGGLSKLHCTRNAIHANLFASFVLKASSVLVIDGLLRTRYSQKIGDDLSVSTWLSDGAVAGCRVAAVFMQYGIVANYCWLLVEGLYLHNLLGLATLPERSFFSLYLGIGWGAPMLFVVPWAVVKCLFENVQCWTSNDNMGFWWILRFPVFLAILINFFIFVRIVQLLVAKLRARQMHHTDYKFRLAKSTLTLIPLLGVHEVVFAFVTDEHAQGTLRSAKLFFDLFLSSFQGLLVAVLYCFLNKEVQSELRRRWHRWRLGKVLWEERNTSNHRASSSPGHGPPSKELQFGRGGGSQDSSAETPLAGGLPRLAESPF
Assay: Assay (I) Glucagon activity (cAMP biosensor, FLIPR)
Assay type: cell-based

SMILES | EC50 [nM]
CC(C)C[C@H](NC(=O)[C@H](CC(N)=O)NC(=O)[C@H](CC(C)C)NC(=O)[C@H](CC(C)C)NC(=O)[C@H](Cc1c[nH]c2ccccc12)NC(=O)[C@H](CCCCNC(=O)CC[C@H](NC(=O)COCCOCCNC(=O)COCCOCCNC(=O)CC[C@H](NC(=O)CCCCCCCCCCCCCCCCC(=O)O)C(=O)O)C(=O)O)NC(=O)[C@@H](NC(=O)[C@H](Cc1ccccc1)NC(=O)[C@H](CCC(=O)O)NC(=O)[C@H](CCC(N)=O)NC(=O)[C@H](C)NC(=O)[C@H](CCCNC(=N)N)NC(=O)[C@H](CCCNC(=N)N)NC(=O)[C@@H](NC(=O)[C@H](CC(=O)O)NC(=O)[C@H](CC(C)C)NC(=O)[C@H](Cc1ccc(O)cc1)NC(=O)[C@H](CCCCN)NC(=O)[C@H](CO)NC(=O)[C@H](Cc1ccc(O)cc1)NC(=O)[C@H](CC(=O)O)NC(=O)[C@H](CO)NC(=O)[C@@H](NC(=O)[C@H](Cc1ccccc1)NC(=O)[C@@H](NC(=O)CNC(=O)[C@H](CCC(N)=O)NC(=O)[C@H](CO)NC(=O)[C@@H](N)Cc1c[nH]cn1)[C@@H](C)O)[C@@H](C)O)[C@@H](C)O)C(C)C)C(=O)O [Example 37, N^ε24-[(4S)-4-carboxy-4-[[2-[2-[2-[[2-[2-[2-[[(4S)-4-carboxy-4-(17-carboxyheptadecanoylamino)butanoyl]amino]ethoxy]ethoxy]acetyl]amino]ethoxy]ethoxy]acetyl]amino]butanoyl]-[Thr16,Glu21,Lys24,Leu27,Leu29]-Glucagon] (H-HSQGTFTSDYSKYLDTRRAQEFVK([γGlu-AEEA-AEEA-γGlu-C18 diacid])WLLNL-OH) | 0.183
CC(C)C[C@H](NC(=O)[C@H](CC(=O)O)NC(=O)[C@H](CC(C)C)NC(=O)[C@H](Cc1ccc(O)cc1)NC(=O)[C@H](CCCNC(=N)N)NC(=O)[C@H](CO)NC(=O)[C@H](Cc1ccc(O)cc1)NC(=O)[C@H](CC(=O)O)NC(=O)[C@H](CO)NC(=O)[C@@H](NC(=O)[C@H](Cc1ccccc1)NC(=O)[C@@H](NC(=O)CNC(=O)[C@H](CCC(N)=O)NC(=O)[C@H](CO)NC(=O)[C@@H](N)Cc1c[nH]cn1)[C@@H](C)O)[C@@H](C)O)C(=O)N[C@@H](CCCNC(=N)N)C(=O)N[C@@H](CCCNC(=N)N)C(=O)N[C@@H](C)C(=O)N[C@@H](CCC(N)=O)C(=O)N[C@@H](CCC(=O)O)C(=O)N[C@@H](Cc1ccccc1)C(=O)N[C@H](C(=O)N[C@@H](CCCCNC(=O)CC[C@H](NC(=O)CC[C@H](NC(=O)COCCOCCNC(=O)COCCOCCNC(=O)CC[C@H](NC(=O)CCCCCCCCCCCCCCCCC(=O)O)C(=O)O)C(=O)O)C(=O)O)C(=O)N[C@@H](Cc1c[nH]c2ccccc12)C(=O)N[C@@H](CC(C)C)C(=O)N[C@@H](CC(C)C)C(=O)N[C@@H](CO)C(=O)N[C@H](C(=O)O)[C@@H](C)O)C(C)C [Example 46, N^ε24-[(4S)-4-carboxy-4-[[(4S)-4-carboxy-4-[[2-[2-[2-[[2-[2-[2-[[(4S)-4-carboxy-4-(17-carboxyheptadecanoylamino)butanoyl]amino]ethoxy]ethoxy]acetyl]amino]ethoxy]ethoxy]acetyl]amino]butanoyl]amino]butanoyl]-[Arg12,Leu16,Glu21,Lys24,Leu27,Ser28]-Glucagon] (H-HSQGTFTSDYSRYLDLRRAQEFVK([γGlu-γGlu-AEEA-AEEA-γGlu-C18 diacid])WLLST-OH) | 0.095
